Bounds are passed on as bounds.

For data set [1], the target named is T1, HIV-1 protease (Q7S mutant form) (Human immunodeficiency virus type 1 group M subtype B, UniProt P04585, Q495S).
T1 construct: made in house
As to the kind of experiment: HIV-1 Protease RET assay. It counts as biochemical. Particulars: Ave. Ki (nM), RET assay, Q7S enzyme, Morrison tight binding fit. An outline of the steps: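 Ki values fitted with the Morrison tight-binding equation from steady-state RET cleavage (ex 340, em 490 nm) of 5 μM RE(EDANS)SQNYPIVQK(DABCYL)R. Buffer pH 4.8 acetate, 1M NaCl, 5 mM DTT, 1 mg/ml BSA, 10% DMSO; 2 nM Q7S mutant dimer, 37 °C, 12 min.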

In data set [2] the test system is HIV-1 (HIV-1 RF, HIV-1 NL4-3) in CEM-SS / MT-2 cells. As to the kind of experiment: Cytopathic effect (CPE) inhibition assay (XTT/MTT dye reduction). Particulars: Human immunodeficiency virus 1, NL43; read-out: Ave CPE EC50. It counts as cell-based. A digest of the protocol: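 Readout is XTT reduction (A450, 4 h) after six days of culturing virus-infected (moi 0.025–0.819) or mock-infected CEM-SS/MT-2 cells, 2×10^4 per well, with half-log compound series. Antiviral EC50 and cytotoxic CC50 are relative to uninfected compound-free cells. Therapeutic index is CC50 divided by EC50.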

A further data set has as its system 461, 84V, 90M virus. As to the kind of experiment: Phenotypic susceptibility assay at Virologic, Inc. It counts as cell-based, HIV-1. Particulars: Human immunodeficiency virus 1, read-out: EC50 or IC50 (mM), values with asterisk (IC50). The protocol:
Compounds were tested in phenotypic susceptibility assays at Virologic, Inc., (See Petropoulos C. J., Parkin N. T., Limoli K. L., Lie Y. S., Wrin T., Huang W., Tian H., Smith D., Winslow G. A., Capon D J, Whitcomb J M. 2000, “A novel phenotypic drug susceptibility assay for human immunodeficiency virus type 1,” Antimicrob Agents Chemother 44(4):920–928) or using the assay described here. MT-2 cells were infected with either HIV-1 NL4-3 or HIV-1 NL4-3([…]) and incubated in the presence of serial 0.5 log dilutions of test compounds. Three days later, culture supernatants were collected and virus production, as determined by p24 ELISA, was assayed. Percent inhibition was calculated as p24 concentration in compound-treated samples as compared to infected, compound-free controls. Inhibition of viral replication is determined by measuring reduction in HIV p24 present in the culture supernatant, using a Beckman-Coulter p24HIV-1 Ag EIA kit and following the supplied protocol. Absorbance is read on a MRX microplate reader (Dynex Technologies). The EC50 was calculated as the concentration of compound that effected a decrease in the p24 production by infected, compound-treated cells to 50% of that produced by infected, compound-free cells.

`Cc1c(O)cccc1C(=O)N[C@@H](Cc1ccccc1)[C@H](O)C(=O)N1CSC(C)(C)[C@H]1C(=O)NC[C@H]1CCCO1` [Example A12, (R)-3-((2S,3S)-2-Hydroxy-3-{[1-(3-hydroxy-2-methyl-phenyl)-methanoyl]-amino}-4-phenyl-butanoyl)-5,5-dimethyl-thiazolidine-4-carboxylic acid [(R)-1-(tetrahydro-furan-2-yl)methyl]-amide]: the melting point (usually the temperature of the solid-liquid transition) lay within 105 to 107 °C. For the same compound, affinity in data set [1] was put at a Ki of 5.5 nM. Besides, the EC50 (usually the concentration needed to bring the measured effect to its halfway point) in data set [2] is 127 nM.
In turn, `Cc1c(O)cccc1C(=O)N[C@@H](Cc1ccccc1)[C@H](O)C(=O)N1CSC(C)(C)[C@H]1C(=O)N[C@@H]1CCOc2ccccc21` [Example A16, (R)-3-((2S,3S)-2-Hydroxy-3-{[1-(3-hydroxy-2-methyl-phenyl)-methanoyl]-amino}-4-phenyl-butanoyl)-5,5-dimethyl-thiazolidine-4-carboxylic acid (R)-chroman4-ylamide] yielded a melting point of 135 to 136 °C. Affinity in data set [1] was put at a Ki of 0.43 nM. Moreover, the EC50 in data set [2] is 254 nM.
Regarding `Cc1c(O)cccc1C(=O)N[C@@H](Cc1ccccc1)[C@H](O)C(=O)N1CSC(C)(C)[C@H]1C(=O)N[C@H]1CCOc2ccccc21` [Example A17, (R)-3-((2S,3S)-2-Hydroxy-3-{[1-(3-hydroxy-2-methyl-phenyl)-methanoyl]-amino}-4-phenyl-butanoyl)-5,5-dimethyl-thiazolidine-4-carboxylic acid (S)-chroman-4-ylamide], the melting point lay within 135 to 136 °C. Moreover, in data set [1], the Ki (as a rule, a dissociation constant, usually derived from enzyme kinetics or from competition with a known ligand) was less than 0.1 nM. Also, in data set [2], the half-maximal effective concentration (EC50) worked out at 24 nM. For the same compound, the IC50 – broadly, the concentration at which inhibition is half-maximal – in the data set with 461, 84V, 90M virus stood at 49 nM.
Compound `Cc1c(O)cccc1C(=O)N[C@@H](Cc1ccccc1)[C@H](O)C(=O)N1CSC(C)(C)[C@H]1C(=O)N[C@@H]1CCSc2ccccc21` [Example A18, (R)-3-((2S,3S)-2-Hydroxy-3-{[1-(3-hydroxy-2-methyl-phenyl)-methanoyl]-amino}-4-phenyl-butanoyl)-5,5-dimethyl-thiazolidine-4-carboxylic acid (R)-thiochroman-4-ylamide] showed a melting point of 125 to 127 °C. The compound further showed a Ki in data set [1] of 0.3 nM. The EC50 in data set [2] was 27 nM.
The compound `Cc1c(O)cccc1C(=O)N[C@@H](Cc1ccccc1)[C@H](O)C(=O)N1CSC(C)(C)[C@H]1C(=O)N[C@H]1CCSc2ccccc21` [Example A19, (R)-3-((2S,3S)-2-Hydroxy-3-{[1-(3-hydroxy-2-methyl-phenyl)-methanoyl]-amino}-4-phenyl-butanoyl)-5,5-dimethyl-thiazolidine-4-carboxylic acid (S)-thiochroman-4-ylamide] displayed a melting point of 125 to 127 °C. The compound also returned a Ki in data set [1] of 0.21 nM. Besides, the EC50 in data set [2] turned out to be 15 nM.
In turn, `Cc1c(O)cccc1C(=O)N[C@@H](Cc1ccccc1)[C@H](O)C(=O)N1CSC(C)(C)[C@H]1C(=O)N[C@@H]1CCc2ccccc21` [Example A29, (R)-3-((2S,3S)-2-Hydroxy-3-{[1-(3-hydroxy-2-methyl-phenyl)-methanoyl]-amino}-4-phenyl-butanoyl)-5,5-dimethyl-thiazolidine4-carboxylic acid (R)-indan-1-ylamide] returned a melting point of 128 to 130 °C. For the same compound, the affinity in data set [1], expressed as Ki, was 0.31 nM. The concentration giving a half-maximal response (EC50) in data set [2] was 118 nM.
Take `Cc1c(O)cccc1C(=O)N[C@@H](Cc1ccccc1)[C@H](O)C(=O)N1CSC(C)(C)[C@H]1C(=O)N[C@@H]1C=CCCC1` [Example A32, (R)-3-((2S,3S)-2-Hydroxy-3-{[1-(3-hydroxy-2-methyl-phenyl)-methanoyl]-amino}-4-phenyl-butanoyl)-5,5-dimethyl-thiazolidine-4-carboxylic acid (S)-cyclohex-2-enylamide]: the melting point fell in the range of 177 to 179 °C. The compound also gave a Ki in data set [1] of less than 0.1 nM. Besides, the EC50 in data set [2] was 12 nM. In addition, the IC50 in the data set on 461, 84V, 90M virus is 55 nM.
`Cc1c(O)cccc1C(=O)N[C@@H](Cc1ccccc1)[C@H](O)C(=O)N1CSC(C)(C)[C@H]1C(=O)N[C@H]1CCc2ccccc21` [Example A35, (R)-3-((2S,3S)-2-Hydroxy-3-{[1-(3-hydroxy-2-methyl-phenyl)-methanoyl]-amino}-4-phenyl-butanoyl)-5,5-dimethyl-thiazolidine-4-carboxylic acid (S)-indan-1-ylamide] yielded a melting point of 204 to 206 °C. This compound also gave a Ki in data set [1] of less than 0.1 nM. In data set [2], the EC50 is 16 nM. Further, the IC50 in the data set on 461, 84V, 90M virus was 41 nM.
As to `Cc1c(O)cccc1C(=O)N[C@@H](Cc1ccccc1)[C@H](O)C(=O)N1CSC(C)(C)[C@H]1C(=O)NC1CCC(C)CC1` (stereo partly drawn) [Example A36, (R)-3-((2S,3S)-2-Hydroxy-3-{[1-(3-hydroxy-2-methyl-phenyl)-methanoyl]-amino}-4-phenyl-butanoyl)-5,5-dimethyl-thiazolidine-4-carboxylic acid (4-methyl-cyclohexyl)-amide], the melting point is 192 to 194 °C. The compound also came in with a Ki in data set [1] of 0.78 nM. Besides, the EC50 in data set [2] was 343 nM.
As for `Cc1c(O)cccc1C(=O)N[C@@H](Cc1ccccc1)[C@H](O)C(=O)N1CSC(C)(C)[C@H]1C(=O)N[C@H]1C=CCCC1` [Example A38, (R)-3-((2S,3S)-2-Hydroxy-3-{[1-(3-hydroxy-2-methyl-phenyl)-methanoyl]-amino}-4-phenyl-butanoyl)-5,5-dimethyl-thiazolidine-4-carboxylic acid (R)-cyclohex-2-enylamide], the melting point was in the range of 193 to 195 °C. In data set [1], the Ki is less than 0.1 nM. The EC50 in data set [2] stood at 38 nM.
For `Cc1cccc(C)c1OCC(=O)N[C@@H](Cc1ccccc1)[C@H](O)C(=O)N1CSC(C)(C)[C@H]1C(=O)N[C@H]1CCOc2ccccc21` [Example B30, (R)-3-{(2S,3S)-3-[2-(2,6-Dimethyl-phenoxy)-ethanoylamino]-2-hydroxy-4-phenyl-butanoyl}-5,5-dimethyl-thiazolidine-4-carboxylic acid (S)-chroman-4-ylamide] the same measures were 105 to 107 °C, 0.21 nM and 443 nM.
In turn, `CC1(C)SCN(C(=O)[C@@H](O)[C@H](Cc2ccccc2)NC(=O)O[C@H]2CCOC2)[C@@H]1C(=O)N[C@H]1CCCc2ccccc21` [Example B33, ((1S,2S)-1-Benzyl-3-{(R)-5,5-dimethyl-4-[(S)-(1,2,3,4-tetrahydro-naphthalen-1-yl)carbamoyl]-thiazolidin-3-yl}-2-hydroxy-3-oxo-propyl)-carbamic acid (S)-(tetrahydro-furan-3-yl) ester] came in with a melting point of 103 to 105 °C. The compound also returned a Ki in data set [1] of less than 0.1 nM. Besides, the EC50 in data set [2] stood at 45 nM. Besides, the half-maximal inhibitory concentration (IC50) with 461, 84V, 90M virus stood at 604 nM.

The values are drawn from patent publication US7094909B2, “HIV protease inhibitors, compositions containing the same, their pharmaceutical uses and materials for their synthesis” (priority 2001, dated 2006).
